Values of other authors, collected in patent US20210361677A1, “DOSING METHODS FOR TREATING INFLAMMATORY BOWEL CONDITIONS” (priority 2020, published 2021).

Conditions: enema by prior methods, two patients, FIG. 1

## Nc1ccc(O)c(C(=O)O)c1 [5-ASA, 5-aminosalicylic acid]
  systemic (plasma) levels of 5-ASA after bowel movements: dramatically lower
